Measured values reported in patent publication US8236512B1, “Methods of developing terpene synthase variants” (Amyris, Inc., priority 2011, dated 2012).

Molecular target: Artemisia annua β-farnesene synthase (SEQ ID NO: 111) variant FS_C_8 F11S/V24D/L18I/M35T/T196S/Y288F/T319S/R348K/T385A/I434T/T446N/I460V/V467I (parent coding se (Artemisia annua, UniProt Q9FXY7))
Assay: Steady-state kinetics of purified farnesene synthase variant FS_C_8
Type: biochemical
Conditions: purified enzyme

Sequence of Artemisia annua β-farnesene synthase (SEQ ID NO: 111) variant FS_C_8 F11S/V24D/L18I/M35T/T196S/Y288F/T319S/R348K/T385A/I434T/T446N/I460V/V467I (parent coding se (Q9FXY7 whole entry F11S/L18I/V24D/M35T/T196S/Y288F/T319S/R348K): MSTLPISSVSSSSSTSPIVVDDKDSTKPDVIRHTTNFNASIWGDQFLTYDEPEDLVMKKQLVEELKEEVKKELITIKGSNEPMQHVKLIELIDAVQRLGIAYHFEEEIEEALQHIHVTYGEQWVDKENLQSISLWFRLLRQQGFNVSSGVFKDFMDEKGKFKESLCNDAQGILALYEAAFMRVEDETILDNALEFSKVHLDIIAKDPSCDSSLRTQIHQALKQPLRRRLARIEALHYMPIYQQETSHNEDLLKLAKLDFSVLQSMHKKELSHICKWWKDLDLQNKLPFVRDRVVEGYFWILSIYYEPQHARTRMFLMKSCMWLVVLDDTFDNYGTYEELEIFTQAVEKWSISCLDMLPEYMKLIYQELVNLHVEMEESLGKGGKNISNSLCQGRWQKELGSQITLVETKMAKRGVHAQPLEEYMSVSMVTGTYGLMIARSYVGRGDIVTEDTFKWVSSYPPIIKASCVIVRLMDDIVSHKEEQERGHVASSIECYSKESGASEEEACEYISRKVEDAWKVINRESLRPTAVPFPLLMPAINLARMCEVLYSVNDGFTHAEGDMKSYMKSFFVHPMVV

`CC(C)=CCC/C(C)=C/CC/C(C)=C/CO[P@@](=O)(O)OP(=O)(O)O` (stereo in doubt) [FPP, farnesyl diphosphate] showed a Km of 1.55 ± 0.76 µM.
